Where two headings read alike, the source gives them in different places.
Tests used:
CYP2C19 = target: T1, CYP2C19 (Homo sapiens, UniProt P33261); assay: Direct inhibition (DI) of CYP2C19 in human liver microsomes; assay type: in vitro ADME; conditions: probe Mephenytoin, human liver microsomes 0.2 mg/mL, 10 μM compound, read-out: Direct inhibition (DI) 2C19 (Mephenytoin)
T1 construct: A system of 100 μL human liver microsomes; from tissue; host or cells: human liver microsomes
Method: (§1) Study on Direct Inhibition (DI) of CYP3A4, CYP2D6, CYP2C9, CYP2C19, CYP1A2
(§2) A system of 100 μL human liver microsomes (final concentration: 0.2 mg/mL) was used for direct inhibition under warm incubation. The system contained NADPH (final concentration: 1 mM), 10 μM compound, a positive inhibitor cocktail (Ketoconazole 10 μM, Quinidine: 10 μM, Sulfaphenazole: 100 μM, Naphthoflavone: 10 μM, Tranylcypromene 1000 μM), a negative control 10 μM DMSO and mixed probe substrates (Midazolam 10 μM, Testosterone 100 μM, Dextromethophan 10 μM, Diclofenac 20 μM, Phenetin 100 μM, Mephenytoin 100 μM). The reaction was terminated after incubation for 20 minutes. The relative activity of the enzymes was calculated by measuring the relative production of metabolites.

[1] = system: N87 (human gastric cancer cell NCI-N87); assay: In vitro proliferation inhibition assay of cell lines (CellTiter-Glo), N87; assay type: cell-based; conditions: N87 cells, 72 hours
Method in brief: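 Cells seeded overnight (BT-474 8.8×10^4 cells/mL, N87 6.6×10^4 cells/mL), then exposed to 9 compound concentrations in duplicate for 72 hours at 37° C, 5% CO2. Viability read by CellTiter-Glo luminescence.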

CYP2C9 = target: T2, CYP2C9 (Homo sapiens, UniProt P11712); assay: Direct inhibition (DI) of CYP2C9 in human liver microsomes; assay type: in vitro ADME; conditions: probe Diclofenac, human liver microsomes 0.2 mg/mL, 10 μM compound, read-out: Direct inhibition (DI) 2C9 (Diclofenac)
T2 construct: A system of 100 μL human liver microsomes; from tissue; host or cells: human liver microsomes
Method: as §1, §2

EGFR kinase = EGFR kinase (Homo sapiens, UniProt P00533); assay: EGFR/ErbB2 enzymatic experiment (HTRF kinEASE-TK), EGFR; assay type: biochemical; conditions: EGFR kinase 0.06 units/μL, ATP 1.65 μM; read-out: Kinase IC50 (nM) in vitro EGFR
CYP2D6 = target: T3, CYP2D6 (Homo sapiens, UniProt P10635); assay: Direct inhibition (DI) of CYP2D6 in human liver microsomes; assay type: in vitro ADME; conditions: probe Dextromethorphan, human liver microsomes 0.2 mg/mL, 10 μM compound, read-out: Direct inhibition (DI) 2D6 (Dextromethorphan)
T3 construct: A system of 100 μL human liver microsomes; from tissue; host or cells: human liver microsomes
Method: as §1, §2

CYP1A2 = target: T4, CYP1A2 (Homo sapiens, UniProt P05177); assay: Direct inhibition (DI) of CYP1A2 in human liver microsomes; assay type: in vitro ADME; conditions: probe Phenacetin, human liver microsomes 0.2 mg/mL, 10 μM compound, read-out: Direct inhibition (DI) 1A2 (Phenacetin)
T4 construct: A system of 100 μL human liver microsomes; from tissue; host or cells: human liver microsomes
T4 sequence (P05177 1-516): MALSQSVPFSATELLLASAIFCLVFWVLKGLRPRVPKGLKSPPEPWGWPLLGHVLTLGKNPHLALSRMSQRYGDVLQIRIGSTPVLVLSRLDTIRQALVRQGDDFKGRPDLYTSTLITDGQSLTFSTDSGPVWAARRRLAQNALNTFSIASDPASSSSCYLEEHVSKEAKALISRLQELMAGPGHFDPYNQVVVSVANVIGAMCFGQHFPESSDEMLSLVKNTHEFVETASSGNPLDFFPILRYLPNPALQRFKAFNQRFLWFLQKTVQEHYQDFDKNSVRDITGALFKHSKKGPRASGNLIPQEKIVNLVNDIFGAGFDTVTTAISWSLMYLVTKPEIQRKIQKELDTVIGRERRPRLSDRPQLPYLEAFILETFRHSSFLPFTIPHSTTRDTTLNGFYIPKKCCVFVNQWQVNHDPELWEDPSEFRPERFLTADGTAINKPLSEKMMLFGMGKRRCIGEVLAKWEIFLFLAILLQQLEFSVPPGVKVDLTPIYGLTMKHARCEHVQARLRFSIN
Method: as §1, §2

[2] = system: BT-474 (human breast cancer cell); assay: In vitro proliferation inhibition assay of cell lines (CellTiter-Glo), BT-474; assay type: cell-based; conditions: BT-474 cells, 72 hours
Method in brief: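 Cells were exposed to nine compound concentrations in duplicate for 72 h at 37 °C and 5% CO2. Viability was read with CellTiter-Glo reagent after equilibration at room temperature.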

ErbB2 kinase = target: T5, ErbB2 kinase (Homo sapiens, UniProt P04626); assay: EGFR/ErbB2 enzymatic experiment (HTRF kinEASE-TK), ErbB2; assay type: biochemical; conditions: ErbB2 kinase 0.06 ng/μL, ATP 4 μM; read-out: Kinase IC50 (nM) in vitro ErbB2
T5 construct: The final concentration of ErbB2 kinase was 0.06 ng/μL

CYP3A4 = target: T6, CYP3A4 (Homo sapiens, UniProt P08684); assay: Direct inhibition (DI) of CYP3A4 in human liver microsomes; assay type: in vitro ADME; conditions: human liver microsomes 0.2 mg/mL, 10 μM compound
T6 construct: A system of 100 μL human liver microsomes; from tissue; host or cells: human liver microsomes
Method: as §1, §2

[3] = system: HER2 overexpressing human gastric cancer NCI-N87 nude mice xenograft; assay: HER2 overexpressing human gastric cancer NCI-N87 nude mice xenograft model; assay type: in vivo; conditions: 10 mg/kg, continuous oral administration for 21 days
From the text: We have established nude mice xenograft model for HER2 overexpression.

[4] = probe Midazolam, read-out: Direct inhibition (DI) 3A4 (Midazolam)
[5] = probe Testosterone, read-out: Direct inhibition (DI) 3A4 (testosterone)

T2 sequence (P11712 whole entry): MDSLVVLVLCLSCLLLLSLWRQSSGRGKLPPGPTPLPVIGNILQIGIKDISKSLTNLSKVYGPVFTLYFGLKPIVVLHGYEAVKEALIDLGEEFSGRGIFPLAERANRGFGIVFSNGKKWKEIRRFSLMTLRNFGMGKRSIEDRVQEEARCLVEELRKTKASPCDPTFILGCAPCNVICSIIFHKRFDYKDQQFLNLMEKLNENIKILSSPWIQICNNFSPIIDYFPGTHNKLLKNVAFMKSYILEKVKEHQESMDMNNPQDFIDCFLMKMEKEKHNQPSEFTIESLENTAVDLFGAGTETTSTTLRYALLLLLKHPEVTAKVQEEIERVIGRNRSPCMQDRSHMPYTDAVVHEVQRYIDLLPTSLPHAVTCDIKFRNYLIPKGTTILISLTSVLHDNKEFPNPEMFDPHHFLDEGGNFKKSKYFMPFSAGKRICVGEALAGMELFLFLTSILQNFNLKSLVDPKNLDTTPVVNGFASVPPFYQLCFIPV
T1 sequence (P33261 whole entry): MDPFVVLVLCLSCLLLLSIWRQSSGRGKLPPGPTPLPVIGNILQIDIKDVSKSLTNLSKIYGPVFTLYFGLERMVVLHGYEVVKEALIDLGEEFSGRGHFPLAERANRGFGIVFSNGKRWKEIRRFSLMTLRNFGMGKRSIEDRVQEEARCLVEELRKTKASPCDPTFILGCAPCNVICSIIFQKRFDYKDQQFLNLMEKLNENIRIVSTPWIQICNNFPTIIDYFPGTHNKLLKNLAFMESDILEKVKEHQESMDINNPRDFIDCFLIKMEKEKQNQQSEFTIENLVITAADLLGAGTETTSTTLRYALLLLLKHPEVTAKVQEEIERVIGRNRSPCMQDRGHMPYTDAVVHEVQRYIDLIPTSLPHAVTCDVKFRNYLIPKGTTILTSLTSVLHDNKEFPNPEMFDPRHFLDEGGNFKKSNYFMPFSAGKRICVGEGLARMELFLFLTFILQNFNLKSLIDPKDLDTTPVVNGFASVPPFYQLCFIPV
T6 sequence (P08684 whole entry): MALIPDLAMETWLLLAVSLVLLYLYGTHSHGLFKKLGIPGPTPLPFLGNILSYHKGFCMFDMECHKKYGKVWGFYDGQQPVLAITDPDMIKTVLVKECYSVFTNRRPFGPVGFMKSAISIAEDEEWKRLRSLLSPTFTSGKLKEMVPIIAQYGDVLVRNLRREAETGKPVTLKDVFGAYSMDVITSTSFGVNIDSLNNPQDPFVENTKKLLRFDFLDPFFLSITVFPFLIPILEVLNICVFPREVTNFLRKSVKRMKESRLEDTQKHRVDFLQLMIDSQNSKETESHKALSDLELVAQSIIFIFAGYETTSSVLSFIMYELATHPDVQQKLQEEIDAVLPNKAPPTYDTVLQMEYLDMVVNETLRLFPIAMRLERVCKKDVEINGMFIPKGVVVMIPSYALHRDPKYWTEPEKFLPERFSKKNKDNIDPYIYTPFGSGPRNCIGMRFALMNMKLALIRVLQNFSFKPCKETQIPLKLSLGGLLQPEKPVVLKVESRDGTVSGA
T5 sequence (P04626 23-1255): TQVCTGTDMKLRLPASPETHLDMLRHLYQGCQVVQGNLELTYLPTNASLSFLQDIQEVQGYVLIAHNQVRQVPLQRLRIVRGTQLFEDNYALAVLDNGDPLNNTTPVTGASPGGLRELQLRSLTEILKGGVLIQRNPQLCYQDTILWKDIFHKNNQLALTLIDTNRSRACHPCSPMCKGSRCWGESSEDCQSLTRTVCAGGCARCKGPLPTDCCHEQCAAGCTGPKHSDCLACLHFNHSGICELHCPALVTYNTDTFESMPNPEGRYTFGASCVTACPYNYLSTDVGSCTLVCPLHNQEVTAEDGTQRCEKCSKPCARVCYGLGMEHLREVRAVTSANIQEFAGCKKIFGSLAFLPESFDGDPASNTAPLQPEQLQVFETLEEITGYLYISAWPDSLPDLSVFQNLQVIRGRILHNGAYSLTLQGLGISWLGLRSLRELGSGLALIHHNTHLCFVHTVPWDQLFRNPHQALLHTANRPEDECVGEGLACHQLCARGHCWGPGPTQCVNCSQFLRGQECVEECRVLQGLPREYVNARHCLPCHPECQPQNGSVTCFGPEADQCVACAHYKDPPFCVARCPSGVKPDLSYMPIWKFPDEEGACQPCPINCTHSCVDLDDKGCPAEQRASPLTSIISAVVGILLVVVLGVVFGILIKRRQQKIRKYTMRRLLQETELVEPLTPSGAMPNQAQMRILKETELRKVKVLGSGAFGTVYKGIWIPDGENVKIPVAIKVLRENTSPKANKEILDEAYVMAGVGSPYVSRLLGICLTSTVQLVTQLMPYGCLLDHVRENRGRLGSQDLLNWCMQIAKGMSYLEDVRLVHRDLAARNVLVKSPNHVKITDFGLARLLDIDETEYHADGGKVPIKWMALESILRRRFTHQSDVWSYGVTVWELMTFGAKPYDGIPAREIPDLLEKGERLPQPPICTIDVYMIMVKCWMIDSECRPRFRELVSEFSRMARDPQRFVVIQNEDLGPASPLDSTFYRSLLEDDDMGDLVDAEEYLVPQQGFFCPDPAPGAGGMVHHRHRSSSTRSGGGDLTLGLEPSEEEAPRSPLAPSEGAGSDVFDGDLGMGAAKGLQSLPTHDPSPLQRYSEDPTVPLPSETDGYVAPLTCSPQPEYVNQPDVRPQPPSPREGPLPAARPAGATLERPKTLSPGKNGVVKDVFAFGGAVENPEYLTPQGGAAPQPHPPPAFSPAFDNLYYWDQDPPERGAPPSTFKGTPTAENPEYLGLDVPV
Chain of EGFR kinase (P00533 25-1210): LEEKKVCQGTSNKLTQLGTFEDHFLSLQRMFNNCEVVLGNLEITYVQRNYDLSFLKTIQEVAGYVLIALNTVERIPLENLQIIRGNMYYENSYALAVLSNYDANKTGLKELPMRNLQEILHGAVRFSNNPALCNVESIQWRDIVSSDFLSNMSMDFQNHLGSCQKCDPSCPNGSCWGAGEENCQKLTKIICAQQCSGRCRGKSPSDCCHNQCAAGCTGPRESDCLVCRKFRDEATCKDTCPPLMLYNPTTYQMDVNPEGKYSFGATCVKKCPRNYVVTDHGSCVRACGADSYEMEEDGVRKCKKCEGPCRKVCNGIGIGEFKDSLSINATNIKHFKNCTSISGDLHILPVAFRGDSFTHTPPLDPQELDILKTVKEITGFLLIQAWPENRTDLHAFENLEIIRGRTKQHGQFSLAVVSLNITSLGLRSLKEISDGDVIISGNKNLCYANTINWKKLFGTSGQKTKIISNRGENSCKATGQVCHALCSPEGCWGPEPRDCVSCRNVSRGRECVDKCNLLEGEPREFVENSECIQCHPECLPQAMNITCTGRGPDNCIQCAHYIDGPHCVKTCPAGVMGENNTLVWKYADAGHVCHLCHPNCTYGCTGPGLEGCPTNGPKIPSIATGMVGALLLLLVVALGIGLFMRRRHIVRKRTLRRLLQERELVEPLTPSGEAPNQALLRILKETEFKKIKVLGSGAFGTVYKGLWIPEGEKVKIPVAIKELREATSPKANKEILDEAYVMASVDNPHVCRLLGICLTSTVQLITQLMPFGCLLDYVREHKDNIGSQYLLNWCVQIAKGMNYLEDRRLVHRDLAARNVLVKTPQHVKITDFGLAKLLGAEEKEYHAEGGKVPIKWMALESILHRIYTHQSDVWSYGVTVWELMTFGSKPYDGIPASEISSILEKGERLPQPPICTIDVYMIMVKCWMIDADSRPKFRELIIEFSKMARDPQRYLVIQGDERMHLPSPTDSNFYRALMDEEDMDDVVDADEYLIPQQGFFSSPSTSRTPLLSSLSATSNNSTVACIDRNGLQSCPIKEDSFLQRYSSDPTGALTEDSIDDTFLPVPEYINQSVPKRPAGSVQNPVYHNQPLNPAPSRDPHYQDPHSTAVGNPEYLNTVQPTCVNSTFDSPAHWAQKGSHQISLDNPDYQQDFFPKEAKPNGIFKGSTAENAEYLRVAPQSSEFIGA
T3 sequence (P10635 whole entry): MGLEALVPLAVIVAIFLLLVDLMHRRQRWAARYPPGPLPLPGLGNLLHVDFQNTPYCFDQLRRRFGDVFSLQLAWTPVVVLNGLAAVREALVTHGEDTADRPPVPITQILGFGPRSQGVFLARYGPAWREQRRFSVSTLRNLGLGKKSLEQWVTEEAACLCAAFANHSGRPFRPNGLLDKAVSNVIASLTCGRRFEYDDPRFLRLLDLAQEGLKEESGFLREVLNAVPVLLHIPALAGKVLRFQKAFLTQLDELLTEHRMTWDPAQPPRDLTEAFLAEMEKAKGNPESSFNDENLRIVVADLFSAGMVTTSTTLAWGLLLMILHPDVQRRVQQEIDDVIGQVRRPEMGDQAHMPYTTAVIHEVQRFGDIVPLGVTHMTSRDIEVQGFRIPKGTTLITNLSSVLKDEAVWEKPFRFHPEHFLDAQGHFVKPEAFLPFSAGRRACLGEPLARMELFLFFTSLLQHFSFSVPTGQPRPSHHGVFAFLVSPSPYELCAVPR

Row | Structure (SMILES) | inhibition at 20 min, 10 µM (CYP2C19) [%] | IC50 [1] [nM] | inhibition at 20 min, 10 µM (CYP2C9) [%] | IC50 (EGFR kinase) [nM] | inhibition at 20 min, 10 µM (CYP2D6) [%] | inhibition at 20 min, 10 µM (CYP1A2) [%] | IC50 [2] [nM] | IC50 (ErbB2 kinase) [nM] | inhibition at 20 min, 10 µM (CYP3A4; [4]) [%] | inhibition at 20 min, 10 µM (CYP3A4; [5]) [%] | tumor volume inhibition rate (GI %) [3] [%]
1 | Cc1cc(Nc2ncnc3ccc(NC(=O)/C=C/[C@H]4CCCN4C)cc23)ccc1Oc1ccc2nccn2c1 [Final product of Embodiment 24] | 36 | 2.93 | 48 | 4.08 | 90 | 18 | 4.6 | 6.46 | 36 | 48 | 
2 | CN1CCC[C@@H]1/C=C/C(=O)Nc1ccc2ncnc(Nc3ccc(Oc4ccn5ncnc5c4)c(Cl)c3)c2c1 [Final product of Embodiment 26, (R,E)-N-(4-((4-([1,2,4]triazolo[1,5-a]pyridin-7-yloxy)-3-chlorophenyl)amino)quinazolin-6-yl)-3-(1-methylpyrrolidin-2-yl)acrylamide] | 28 | 3.55 | 19 | 2.52 | 85 | 2 | 5.23 | 0.83 | < 0 | 5 | 
3 | CCOc1cc2ncc(C#N)c(Nc3ccc(Oc4cc5nncn5cn4)c(C)c3)c2cc1NC(=O)/C=C/[C@H]1CCCN1 [Final product of Embodiment 32] | 75 | 4.2 | 66 | 1.06 | 6 | < 0 | 4 | 3.13 | 8 | 11 | 
4 | CCOc1cc2ncnc(Nc3ccc(Oc4ccn5ncnc5c4)c(C)c3)c2cc1NC(=O)/C=C/[C@H]1CCCN1 [Final product of Embodiment 38, (R,E)-N-(4-((4-([1,2,4]triazolo[1,5-a]pyridin-7-yloxy)-3-methylphenyl)amino)-7-ethoxyquinazolin-6-yl)-3-(pyrrolidin-2-yl)acrylamide] | 45 | 2.4 | 10 | 0.6 | 24 | < 0 | 2.8 | 0.5 | 5 | 16 | 
5 | CCOc1cc2ncnc(Nc3ccc(Oc4ccn5ncnc5c4)c(C)c3)c2cc1NC(=O)/C(F)=C\[C@H]1CCCN1C [Final product of Embodiment 44] | 27 | 1.2 | 11 | 32.6 | 36 | 12 | 2 | 2.4 | < 0 | 13 | 
6 | CCOc1cc2ncc(C#N)c(Nc3ccc(OCc4ccccn4)c(Cl)c3)c2cc1NC(=O)/C=C/CN(C)C [Neratinib, reference compound] |  |  |  |  |  |  |  |  |  |  | 112.5

Further compounds by falling IC50 [1], results first:

Row | inhibition at 20 min, 10 µM (CYP2C19) [%] | IC50 [1] [nM] | inhibition at 20 min, 10 µM (CYP2C9) [%] | IC50 (EGFR kinase) [nM] | inhibition at 20 min, 10 µM (CYP2D6) [%] | inhibition at 20 min, 10 µM (CYP1A2) [%] | IC50 [2] [nM] | IC50 (ErbB2 kinase) [nM] | inhibition at 20 min, 10 µM (CYP3A4; [4]) [%] | inhibition at 20 min, 10 µM (CYP3A4; [5]) [%] | Structure (SMILES) | tumor volume inhibition rate (GI %) [3] [%]
7 | 1 | 8.5 | < 0 | 0.6 | 71 | < 0 | 3.9 | 0.6 | < 0 | 6 | Cc1cc(Nc2ncnc3ccc(NC(=O)/C=C/[C@H]4CCCN4C)cc23)ccc1Oc1cc2nccn2cn1 [Final product of Embodiment 41] | 
8 | 10 | 5.43 | 1 | 1.62 | 13 | < 0 | 4.2 | 7.56 | < 0 | 18 | Cc1cc(Nc2c(C#N)cnc3ccc(NC(=O)/C=C/[C@H]4CCCN4C)cc23)ccc1Oc1cc2nncn2cn1 [Final product of Embodiment 23, (R,E)-N-(4-((4-([1,2,4]triazolo[4,3-c]pyrimidin-7-yloxy)-3-methylphenyl)amino)-3-cyanoquinolin-6-yl)-3-(1-methylpyrrolidin-2-yl)acrylamide] | 
9 | 47 | 3.8 | 34 | 38.5 | 54 | 35 | 7.1 | 4.2 | 33 | 42 | CCOc1cc2ncnc(Nc3ccc(Oc4ccn5ncnc5c4)c(C)c3)c2cc1NC(=O)/C(F)=C/[C@@H]1CCCN1C [Final product of Embodiment 47] | 
10 | 49 | 3.2 | 17 | 2.14 | 3 | < 0 | 4.2 | 3.56 | 10 | 17 | CCOc1cc2ncc(C#N)c(Nc3ccc(Oc4cc5nncn5cn4)c(C)c3)c2cc1NC(=O)/C=C/[C@H]1CCCN1C [Final product of Embodiment 33] | 
11 | < 0 | 1.3 | < 0 | 4.7 | 69 | < 0 | 1.8 | 2.6 | < 0 | < 0 | Cc1cc(Nc2ncnc3ccc(NC(=O)/C(F)=C/[C@H]4CCCN4C)cc23)ccc1Oc1cc2nncn2cn1 [Final product of Embodiment 43] | 
